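Protocol summary: plate cells (96-well), add compound at 5 concentrations, incubate 48 h, interpolate endpoints linearly. The concentration for 50% growth inhibition is given as GI50.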 Calls of active or inactive are those of the source. No stated cut-off is given here; in the data, active = GI50 up to about 1.1 µM and inactive = higher.
What was measured:
Test in all cases: NCI anticancer screen, dose series, 48 h
NCI-H460 = test system: NCI-H460
HOP-62 = test system: HOP-62
UO-31 = test system: UO-31
SK-MEL-5 = test system: SK-MEL-5
XF498 = test system: XF498
HL-60 = test system: HL-60
COLO 205 = test system: COLO 205
HCC 2998 = test system: HCC 2998
TK-10 = test system: TK-10
KM12 = test system: KM12
HCT-15 = test system: HCT-15
UACC-257 = test system: UACC-257
CCRF-CEM = test system: CCRF-CEM
SF-295 = test system: SF-295
SR = test system: SR
MDA-MB-231 = test system: MDA-MB-231
PC-3 = test system: PC-3
BT-549 = test system: BT-549
Hs-578T = test system: Hs-578T
MDA-N = test system: MDA-N

SMILES	GI50 (NCI-H460)	GI50 (HOP-62)	GI50 (UO-31)	GI50 (SK-MEL-5)	GI50 (XF498)	GI50 (HL-60)	GI50 (COLO 205)	GI50 (HCC 2998)	GI50 (TK-10)	GI50 (KM12)	GI50 (HCT-15) [µM]	GI50 (UACC-257)	GI50 (CCRF-CEM)	GI50 (SF-295)	GI50 (SR)	GI50 (MDA-MB-231)	GI50 (PC-3)	GI50 (BT-549)	GI50 (Hs-578T)	GI50 (MDA-N)
CC(=O)c1ccccc1NC(=O)C(=O)C(C(=O)c1ccc2ccccc2c1)C1OC(=O)c2ccccc21 (configuration not stated)	5.43 µM (inactive)	10.7 µM (inactive)	13.3 µM (inactive)	11.4 µM (inactive)	3.13 µM (inactive)	9.91 µM (inactive)	14.9 µM (inactive)	4.72 µM (inactive)	34 µM (inactive)	18.3 µM (inactive)	13.7	13.8 µM (inactive)	4.42 µM (inactive)	–	–	–	–	–	–	–
Nc1ccc(C(=O)NN2C(=O)C(Cl)C2c2cc(Br)ccc2O)cc1 (configuration not stated)	> 100 µM (inactive)	> 100 µM (inactive)	> 100 µM (inactive)	> 100 µM (inactive)	> 100 µM (inactive)	30.1 µM (inactive)	> 100 µM (inactive)	> 100 µM (inactive)	> 100 µM (inactive)	> 100 µM (inactive)	> 100	> 100 µM (inactive)	62.1 µM (inactive)	> 100 µM (inactive)	–	–	–	–	–	–
NC(=S)N1N=C2c3ccccc3CC[C@H]2[C@@H]1c1cccs1	33 µM (inactive)	33.3 µM (inactive)	27.5 µM (inactive)	–	37.2 µM (inactive)	16.1 µM (inactive)	16.5 µM (inactive)	37.4 µM (inactive)	64.6 µM (inactive)	26.6 µM (inactive)	21.3	28 µM (inactive)	18.8 µM (inactive)	15.8 µM (inactive)	4.68 µM (inactive)	–	–	–	–	–
O=C(CN1CCOCC1)Nc1nc(-c2ccc(Cl)cc2)cs1	28.3 µM (inactive)	22.6 µM (inactive)	20.3 µM (inactive)	–	13.2 µM (inactive)	17.3 µM (inactive)	31.9 µM (inactive)	26.8 µM (inactive)	34.4 µM (inactive)	19.5 µM (inactive)	29.4	–	21.3 µM (inactive)	25.8 µM (inactive)	–	–	–	–	–	–
CC(=O)Nc1ccc2c3c(cc(O)c2c1)N(C(=O)CCCC(=O)Nc1ccc2c4c(cc(O)c2c1)N(C(=O)OC(C)(C)C)CC4CCl)CC3CCl (configuration not stated)	1.48 µM (inactive)	2.01 µM (inactive)	> 38.5 µM (inactive)	1.1 µM (active)	–	0.118 µM (active)	1.22 µM (inactive)	0.771 µM (active)	7.6 µM (inactive)	2.26 µM (inactive)	> 50	1.04 µM (active)	0.108 µM (active)	13.4 µM (inactive)	0.0221 µM (active)	1.47 µM (inactive)	1.27 µM (inactive)	0.881 µM (active)	1.55 µM (inactive)	1.05 µM (active)
CCN(CC)c1oc(N(CC)CC)c(C(=O)Nc2ccccn2)c(=O)c1C(C)=O	> 100 µM (inactive)	> 100 µM (inactive)	> 100 µM (inactive)	> 100 µM (inactive)	> 100 µM (inactive)	–	> 100 µM (inactive)	–	> 100 µM (inactive)	> 100 µM (inactive)	> 100	–	> 100 µM (inactive)	–	> 100 µM (inactive)	–	–	–	–	–
O=[N+]([O-])c1ccc2c(/N=N/c3c(O)ccc4ccccc34)c(O)cc(S(=O)(=O)O)c2c1	44.4 µM (inactive)	6.73 µM (inactive)	2.45 µM (inactive)	11.2 µM (inactive)	–	1.09 µM (active)	18.3 µM (inactive)	63.1 µM (inactive)	37.1 µM (inactive)	24.2 µM (inactive)	4.62	20 µM (inactive)	0.869 µM (active)	13.3 µM (inactive)	26.2 µM (inactive)	18 µM (inactive)	6.98 µM (inactive)	26.9 µM (inactive)	> 50 µM (inactive)	15.5 µM (inactive)
CCCCCCCCCCCOc1ccc(C(=O)C(=O)c2ccc(OCCCCCCCCCCC)c(OCCCCCCCCCCC)c2)cc1OCCCCCCCCCCC	> 100 µM (inactive)	> 100 µM (inactive)	> 100 µM (inactive)	> 100 µM (inactive)	> 100 µM (inactive)	> 100 µM (inactive)	> 100 µM (inactive)	> 100 µM (inactive)	> 100 µM (inactive)	> 100 µM (inactive)	> 100	> 100 µM (inactive)	> 100 µM (inactive)	> 100 µM (inactive)	–	–	–	–	–	–
CCCc1nc(N)nc(C(=O)Nc2cccc(C(F)(F)F)c2)c1CC	> 100 µM (inactive)	> 100 µM (inactive)	> 100 µM (inactive)	> 100 µM (inactive)	> 100 µM (inactive)	> 100 µM (inactive)	–	> 100 µM (inactive)	> 100 µM (inactive)	> 100 µM (inactive)	> 100	> 100 µM (inactive)	–	> 100 µM (inactive)	–	–	–	–	–	–
O=S(=O)(c1ccccc1)n1cc(C[P+](c2ccccc2)(c2ccccc2)c2ccccc2)c2ccccc21	2.91 µM (inactive)	3.19 µM (inactive)	3.38 µM (inactive)	1.67 µM (inactive)	3.6 µM (inactive)	2.04 µM (inactive)	1.99 µM (inactive)	3.36 µM (inactive)	3.69 µM (inactive)	3.6 µM (inactive)	16.6	–	2.43 µM (inactive)	12 µM (inactive)	5.2 µM (inactive)	–	–	–	–	–
